From BindingDB's records for doi:10.1016/j.ejmech.2021.113204 (Shandong University, 2021)
pEC50: −log10 of the molar value.

How the values were obtained:
[1] = Inhibition of reverse transcriptase L100I mutant in HIV-1 infected in human MT4 cells assessed as reduction in virus-induced cytopathic effect incubated for 5 days by MTT assay
[2] = Inhibition of reverse transcriptase Y188L mutant in HIV-1 infected in human MT4 cells assessed as reduction in virus-induced cytopathic effect incubated for 5 days by MTT assay
[3] = Inhibition of reverse transcriptase E138K mutant in HIV-1 infected in human MT4 cells assessed as reduction in virus-induced cytopathic effect incubated for 5 days by MTT assay
[4] = Inhibition of reverse transcriptase F227L/V106A double mutant in HIV-1 infected in human MT4 cells assessed as reduction in virus-induced cytopathic effect incubated for 5 days by MTT assay
[5] = Inhibition of reverse transcriptase K103N mutant in HIV-1 infected in human MT4 cells assessed as reduction in virus-induced cytopathic effect incubated for 5 days by MTT assay

Cc1cc(/C=C/C#N)cc(C)c1Oc1nc(Nc2ccc(CN3CCN(S(N)(=O)=O)CC3)cc2)nc2ccsc12
pEC50 [1]: 7.37
pEC50 [2]: 6.26
pEC50 [3]: 7.59
pEC50 [4]: 6.76

Cc1cc(/C=C/C#N)cc(C)c1Oc1nc(Nc2ccc(CN3CCN(S(C)(=O)=O)CC3)cc2)nc2ccsc12
pEC50 [1]: 5.81
pEC50 [2]: < 4.68
pEC50 [5]: 6.45
pEC50 [3]: 6.01
pEC50 [4]: 5.66

Cc1cc(/C=C/C#N)cc(C)c1Oc1nc(Nc2ccc(CN3CCN(S(N)(=O)=O)CC3)cc2)nc2sccc12
pEC50 [1]: 7.82
pEC50 [2]: 6.06
pEC50 [5]: 8.15
pEC50 [3]: 7.60
pEC50 [4]: 6.43

Cc1cc(/C=C/C#N)cc(C)c1Oc1nc(Nc2ccc(CN3CCN(S(C)(=O)=O)CC3)cc2)nc2sccc12
pEC50 [1]: 6.41
pEC50 [2]: 5.03
pEC50 [5]: 7.27
pEC50 [3]: 6.79
pEC50 [4]: 5.79

Cc1cc(/C=C/C#N)cc(C)c1Oc1nc(Nc2ccc(N3CCN(S(N)(=O)=O)CC3)cc2)nc2ccsc12
pEC50 [1]: 6.12
pEC50 [2]: 4.64
pEC50 [5]: 7.68
pEC50 [3]: 7.37
pEC50 [4]: 6.69

Cc1cc(/C=C/C#N)cc(C)c1Oc1nc(Nc2ccc(N3CCN(S(C)(=O)=O)CC3)cc2)nc2ccsc12
pEC50 [1]: 6.03
pEC50 [2]: 5.29
pEC50 [5]: 7.25
pEC50 [3]: 7.06
pEC50 [4]: 6.55

Cc1cc(/C=C/C#N)cc(C)c1Oc1nc(Nc2ccc(N3CCN(S(N)(=O)=O)CC3)cc2)nc2sccc12
pEC50 [1]: 6.39
pEC50 [2]: 4.99
pEC50 [5]: 7.51
pEC50 [3]: 7.30
pEC50 [4]: 6.48

Cc1cc(/C=C/C#N)cc(C)c1Oc1nc(Nc2ccc(N3CCN(S(C)(=O)=O)CC3)cc2)nc2sccc12
pEC50 [1]: 5.48
pEC50 [2]: 4.16
pEC50 [5]: 6.66
pEC50 [3]: 6.39
pEC50 [4]: 5.71

Cc1cc(/C=C/C#N)cc(C)c1Oc1nc(Nc2ccc(N3CCCC(NS(N)(=O)=O)C3)cc2)nc2ccsc12 (stereo unspecified)
pEC50 [1]: 5.78
pEC50 [2]: 5.17
pEC50 [5]: 6.99
pEC50 [3]: 6.91
pEC50 [4]: 6.42

Cc1cc(/C=C/C#N)cc(C)c1Oc1nc(Nc2ccc(N3CCCC(NS(C)(=O)=O)C3)cc2)nc2ccsc12 (stereo unspecified)
pEC50 [1]: 5.17
pEC50 [2]: 3.82
pEC50 [3]: 5.89
pEC50 [4]: 4.78

Cc1cc(/C=C/C#N)cc(C)c1Oc1nc(Nc2ccc(N3CCCC(NS(N)(=O)=O)C3)cc2)nc2sccc12 (stereo unspecified)
pEC50 [1]: 5.63
pEC50 [2]: 4.05
pEC50 [5]: 6.35
pEC50 [3]: 6.21
pEC50 [4]: 5.44

Cc1cc(/C=C/C#N)cc(C)c1Oc1nc(Nc2ccc(N3CCCC(NS(C)(=O)=O)C3)cc2)nc2sccc12 (stereo unspecified)
pEC50 [1]: 5.07
pEC50 [5]: 5.87
pEC50 [3]: 5.37
